What was measured:
[1] = tested on: Respiratory syncytial virus recombinant with luciferase (RSV-Luc5) in NHBE cells; test: NHBE RSV-Luc5 384-well Assay (EC50 RSVFLUC NHBE-384, Ex. U); assay type: cell-based; conditions: human respiratory syncytial virus, 72 h, read-out: EC50 RSV FLUC NHBE 384 (per Ex. U)
Text: Example U. NHBE RSV-Luc5 384-well Assay (EC50 RSVFLUC NHBE-384)
Normal Human Bronchial Epithelial (NHBE) cells were purchased from Lonza (Walkersville, MD Cat #CC2540) and maintained in BEGM Bronchial Epithelial Cell Growth Medium BulletKit (Lonza CC-3170).
Cells were thawed, expanded, and were used for experiments at passage 2. Respiratory syncytial virus recombinant with luciferase (RSV-Luc5) (≥1×10^7 Infectious Units/ml (IU/ml) determined by TCID50) was purchased from Microbiologics (Saint Cloud, MN). Viral replication was determined in NHBE cells in the following manner.
Compounds are prepared in 100% DMSO in 384-well polypropylene plates (Greiner, Monroe, NC, Cat #784201) with 8 compounds per plate in grouped replicates of 4 at 10 serially diluted concentrations (1:3). The serially diluted compounds were transferred to low dead volume Echo plates (Labcyte, Sunnyvale, CA, Cat #LP-0200).
The test compounds were spotted to 384-well assay plates (Greiner, Monroe, NC, Cat#781091) at 200 nL per well. NHBE cells were harvested and suspended in BEGM Bronchial Epithelial Cell Growth Medium BulletKit and seeded to the pre-spotted assay plates at 5,000 cells per well in 30 μL. RSV-Luc5 virus was diluted in BEGM Bronchial Epithelial Cell Growth Medium BulletKit at 500,000 Infectious Units (IU) per mL and 10 μL per well was added to the assay plates containing cells and compounds, for an MOI of 1. The assay plates were incubated for 3 days at 37° C. and 5% CO2. At the end of incubation, One-Glo reagent (Promega, Madison, WI, Cat #E6120) was prepared. The assay plates and One-Glo reagent were equilibrated to room temperature for at least 15 minutes. 40 μL per well of One-Glo reagent was added and the plates were incubated at room temperature for 15 minutes before reading the luminescence signal on an EnVision multimode plate reader (Perkin Elmer, Waltham, MA). Remdesivir was used as positive control and DMSO was used as negative control. Values were normalized to the positive and negative controls (as 0% and 100% replication, respectively) and data was fitted using non-linear regression analysis by Gilead's dose response tool. The EC50 value for each compound was defined as the concentration reducing the viral replication by 50%.

[2] = GI S9 stability (Ex. Z), cyno intestinal S9; assay type: in vitro ADME; conditions: cynomolgus monkey, pooled intestinal S9 fractions; cyno intestinal S9, 1.0 mg/mL protein, 2 μM substrate, pH 7.4; read-out: GIS9 Cyno T½ (per Ex. Z)
Description: Example Z: GI S9 stability data:
Stock solutions of test compounds in dimethyl sulfoxide (DMSO) having a final concentration of 10 mM were prepared and used in all experiments. Sekisui XenoTech (Kansas City, KS) provided pooled intestinal S9 fractions. All other chemicals were purchased from Sigma-Aldrich (St. Louis, MO) or VWR (West Chester, PA). Internal Standard/Quench (IS/Q) used to stop reactions was 100 nM labetalol in (by volume) methanol (10%) and acetonitrile (90%).
Stability in Intestinal S9 Fractions: Duplicate aliquots of test compound or positive control substrate were added to S9 stock diluted with phosphate buffered saline (137 mM NaCl, 2.7 mM KCl, 10 mM phosphate buffer), pH 7.4, to obtain a protein concentration of 1.0 mg/mL. The metabolic reactions were initiated by the addition of the substrates to the S9 reaction mixture to a final concentration of 2 μM. At 0, 10, 20, 30, 60 and 120 min, 25 μL aliquots of the reaction mixture were transferred to plates containing 225 μl of IS/Q solution. After quenching, the plates were centrifuged at 3000×g for 30 minutes. 150 μL aliquots of each supernatant were dried down then reconstituted with 300 μL water. Aliquots (10 μL) of the prepared samples were analyzed on a Thermo Q-Exactive mass spectrometer as described below.
Liquid Chromatography—Mass Spectrometry: Quantification of test compounds and control substrate was performed by analyte/internal standard peak area ratio (PAR) values measured on a Thermo Q-Exactive mass spectrometer coupled to a Dionex UltiMate 3000 HPLC with a Leap Technologies HTC PAL autosampler. The column used for analysis was a Waters Acquity BEH C18 (1.7 μm particle size, 2.1×50 mm). Mobile phase A consisted of 0.1% (v/v) formic acid in water. Mobile phase B consisted of 0.1% (v/v) formic acid in acetonitrile. Elution of analytes was achieved by a series of linear gradients varying the proportions of A and B. The mass spectrometer was calibrated on a weekly basis and mass tolerance of 5 ppm was used.
Metabolic stabilities in S9 fractions were determined by measuring the rates of disappearance of test compound and positive control substrate.
Data (% of substrate remaining) were plotted on a semi-log scale and fitted using an exponential decline model:
Where Ct—% of substrate remaining at time=t; C0—% of substrate remaining at time=0; t—time; T½—half-life The Half-life (T½) is determined by the following equation: […]
Assuming a first-order reaction, the slope (k) is extrapolated from the aforementioned plotted data.

SMILES	EC50 [1] [µM]	half-life at 2 μM [2] [min]
CC(C)C(=O)OC[C@@]1(C#N)O[C@@H](c2ccc3c(N)ncnn23)[C@H](O)[C@@H]1O [Compound 1, ((2R,3S,4R,5S)-5-(4-aminopyrrolo[2,1-f][1,2,4]triazin-7-yl)-2-cyano-3,4-dihydroxytetrahydrofuran-2-yl)methyl isobutyrate]	22.1	25
N#C[C@]1(COC(=O)c2ccccc2)O[C@@H](c2ccc3c(N)ncnn23)[C@H](O)[C@@H]1O [Compound 2, ((2R,3S,4R,5S)-5-(4-aminopyrrolo[2,1-f][1,2,4]triazin-7-yl)-2-cyano-3,4-dihydroxytetrahydrofuran-2-yl)methyl benzoate]	7.47	32
CC(C)CC(=O)OC[C@@]1(C#N)O[C@@H](c2ccc3c(N)ncnn23)[C@H](O)[C@@H]1O [Compound 3, ((2R,3S,4R,5S)-5-(4-aminopyrrolo[2,1-f][1,2,4]triazin-7-yl)-2-cyano-3,4-dihydroxytetrahydrofuran-2-yl)methyl 3-methylbutanoate]	8.07	17
CC(=O)OC[C@@]1(C#N)O[C@@H](c2ccc3c(N)ncnn23)[C@H](O)[C@@H]1O [Compound 4, ((2R,3S,4R,5S)-5-(4-aminopyrrolo[2,1-f][1,2,4]triazin-7-yl)-2-cyano-3,4-dihydroxytetrahydrofuran-2-yl)methyl acetate]	11	9
CCC(=O)OC[C@@]1(C#N)O[C@@H](c2ccc3c(N)ncnn23)[C@H](O)[C@@H]1O [Compound 5, ((2R,3S,4R,5S)-5-(4-aminopyrrolo[2,1-f][1,2,4]triazin-7-yl)-2-cyano-3,4-dihydroxytetrahydrofuran-2-yl)methyl propionate]	8.89	6
CCCC(=O)OC[C@@]1(C#N)O[C@@H](c2ccc3c(N)ncnn23)[C@H](O)[C@@H]1O [Compound 6, ((2R,3S,4R,5S)-5-(4-aminopyrrolo[2,1-f][1,2,4]triazin-7-yl)-2-cyano-3,4-dihydroxytetrahydrofuran-2-yl)methyl butyrate]	7.71	8
N#C[C@]1(COC(=O)C2CC2)O[C@@H](c2ccc3c(N)ncnn23)[C@H](O)[C@@H]1O [Compound 7, ((2R,3S,4R,5S)-5-(4-aminopyrrolo[2,1-f][1,2,4]triazin-7-yl)-2-cyano-3,4-dihydroxytetrahydrofuran-2-yl)methyl cyclopropanecarboxylate]	9.65	100
N#C[C@]1(COC(=O)C2CCC2)O[C@@H](c2ccc3c(N)ncnn23)[C@H](O)[C@@H]1O [Compound 8, ((2R,3S,4R,5S)-5-(4-aminopyrrolo[2,1-f][1,2,4]triazin-7-yl)-2-cyano-3,4-dihydroxytetrahydrofuran-2-yl)methyl cyclobutanecarboxylate]	8.79	4
CCC(CC)C(=O)OC[C@@]1(C#N)O[C@@H](c2ccc3c(N)ncnn23)[C@H](O)[C@@H]1O [Compound 9, ((2R,3S,4R,5S)-5-(4-aminopyrrolo[2,1-f][1,2,4]triazin-7-yl)-2-cyano-3,4-dihydroxytetrahydrofuran-2-yl)methyl 2-ethylbutanoate]	8.69	57
CC(C)(C)C(=O)OC[C@@]1(C#N)O[C@@H](c2ccc3c(N)ncnn23)[C@H](O)[C@@H]1O [Compound 10, ((2R,3S,4R,5S)-5-(4-aminopyrrolo[2,1-f][1,2,4]triazin-7-yl)-2-cyano-3,4-dihydroxytetrahydrofuran-2-yl)methyl pivalate]	8.08	123
CCC(CC)C(=O)Nc1ncnn2c([C@@H]3O[C@](C#N)(COC(=O)C(CC)CC)[C@@H](O)[C@H]3O)ccc12 [Compound 11, ((2R,3S,4R,5S)-2-cyano-5-(4-(2-ethylbutanamido)pyrrolo[2,1-f][1,2,4]triazin-7-yl)-3,4-dihydroxytetrahydrofuran-2-yl)methyl 2-ethylbutanoate]	25.2	19
CC(C)[C@H](N)C(=O)OC[C@@]1(C#N)O[C@@H](c2ccc3c(N)ncnn23)[C@H](O)[C@@H]1O [Compound 12, ((2R,3S,4R,5S)-5-(4-aminopyrrolo[2,1-f][1,2,4]triazin-7-yl)-2-cyano-3,4-dihydroxytetrahydrofuran-2-yl)methyl L-valinate]	11.5	2
CC(C)(C)CC(=O)OC[C@@]1(C#N)O[C@@H](c2ccc3c(N)ncnn23)[C@H](O)[C@@H]1O [Compound 13, ((2R,3S,4R,5S)-5-(4-aminopyrrolo[2,1-f][1,2,4]triazin-7-yl)-2-cyano-3,4-dihydroxytetrahydrofuran-2-yl)methyl 3,3-dimethylbutanoate]	10.9	408
Cc1ccc(C(=O)OC[C@@]2(C#N)O[C@@H](c3ccc4c(N)ncnn34)[C@H](O)[C@@H]2O)cc1 [Compound 14, ((2R,3S,4R,5S)-5-(4-aminopyrrolo[2,1-f][1,2,4]triazin-7-yl)-2-cyano-3,4-dihydroxytetrahydrofuran-2-yl)methyl 4-methylbenzoate]	8.82	22
CC1(C(=O)OC[C@@]2(C#N)O[C@@H](c3ccc4c(N)ncnn34)[C@H](O)[C@@H]2O)CC1 [Compound 15, ((2R,3S,4R,5S)-5-(4-aminopyrrolo[2,1-f][1,2,4]triazin-7-yl)-2-cyano-3,4-dihydroxytetrahydrofuran-2-yl)methyl 1-methylcyclopropane-1-carboxylate]	8.8	123
CC1(C)CC(C(=O)OC[C@@]2(C#N)O[C@@H](c3ccc4c(N)ncnn34)[C@H](O)[C@@H]2O)C1 [Compound 17, ((2R,3S,4R,5S)-5-(4-aminopyrrolo[2,1-f][1,2,4]triazin-7-yl)-2-cyano-3,4-dihydroxytetrahydrofuran-2-yl)methyl 3,3-dimethylcyclobutane-1-carboxylate]	8.09	
N#C[C@]1(COC(=O)C2CCCCC2)O[C@@H](c2ccc3c(N)ncnn23)[C@H](O)[C@@H]1O [Compound 19, ((2R,3S,4R,5S)-5-(4-aminopyrrolo[2,1-f][1,2,4]triazin-7-yl)-2-cyano-3,4-dihydroxytetrahydrofuran-2-yl)methyl cyclohexanecarboxylate]		2
CC(C)C(=O)OC[C@@]1(C#N)O[C@@H](c2ccc3c(N)ncnn23)[C@H](OC(=O)C(C)C)[C@@H]1OC(=O)C(C)C [Compound 20, (2R,3S,4S,5S)-5-(4-aminopyrrolo[2,1-f][1,2,4]triazin-7-yl)-2-cyano-2-((isobutyryloxy)methyl)tetrahydrofuran-3,4-diyl bis(2-methylpropanoate)]	31.7	
